The values that follow come from patent publication US9932309B2, “2-oxo-3,4-dihydropyridine-5-carboxylates and their use” (UNIVERSITE DE LILLE 2 DROIT ET SANTE, priority 2014, dated 2018).

As a reminder, the EC50 is the concentration needed to bring the measured effect to its halfway point. Low readings indicate higher potency in that assay, high ones lower potency in that assay.

Assay [1] addresses T1, mTGR5 (Mus musculus, UniProt Q80SS6).
T1 construct: expressed in transfected cells; host or cells: HEK293 cells, transiently co-transfected with the pCRE TA-Luciferase reporter
T1 sequence (Q80SS6 1-329): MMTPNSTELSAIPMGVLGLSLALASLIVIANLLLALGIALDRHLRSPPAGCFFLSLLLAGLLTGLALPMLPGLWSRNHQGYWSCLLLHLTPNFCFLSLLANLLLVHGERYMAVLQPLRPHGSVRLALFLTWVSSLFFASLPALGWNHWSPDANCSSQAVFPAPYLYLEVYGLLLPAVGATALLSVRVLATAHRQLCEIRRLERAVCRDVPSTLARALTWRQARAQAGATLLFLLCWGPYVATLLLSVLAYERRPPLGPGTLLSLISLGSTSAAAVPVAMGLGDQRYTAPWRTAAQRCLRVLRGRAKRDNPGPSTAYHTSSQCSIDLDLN
The assay can be described thus: TGR5/CRE Luciferase Assay (mTGR5). The class given is cell-based. Particulars: for EC50: HEK 293 cells co-transfected with pCMV AC6-TGR5m and pCRE TA-Luciferase, overnight incubation; for mTGR5 % trans: percentage of the 10 μM LCA value, HEK 293 cells transfected with mTGR5. As for the experimental part:
(§1) TGR5/CRE Luciferase Assay
(§2) In the following Tables TGR5 activation by compounds of the invention and subsequent increase in intracellular cAMP were evaluated using a luciferase reporter gene assay. Human embryonic kidney (HEK) 293 cells were transiently co-transfected with pCMV tag4b-TGR5 h (to follow hTGR5 activation) or pCMV AC6-TGR5m (to follow mTGR5 activation) expression plasmids and the pCRE TA-Luciferase reporter plasmid using the JET PEI reagent (Polyplus transfection). Transfected cells were seeded in 96-well plates and incubated overnight with the test compounds at increasing concentrations tested in duplicate. Lithocolic acid (LCA) at 10 μM was used as a positive reference compound. The cAMP-dependent luciferase expression was followed using the BrightGlo reagent according to the manufacturer (Promega) instructions. Luminescence was read with a Mithras plate reader (Berthold) or a Victor3™ V1420 (Perkin Elmer). […] Concentration-response curves were fitted by a nonlinear regression analysis to a 4 parameter logistic equation

In assay [2] the target is T2, hTGR5 (Homo sapiens, UniProt Q8TDU6).
T2 construct: expressed in transfected cells; host or cells: HEK293 cells, transiently co-transfected with the pCRE TA-Luciferase reporter
T2 sequence (Q8TDU6 1-330): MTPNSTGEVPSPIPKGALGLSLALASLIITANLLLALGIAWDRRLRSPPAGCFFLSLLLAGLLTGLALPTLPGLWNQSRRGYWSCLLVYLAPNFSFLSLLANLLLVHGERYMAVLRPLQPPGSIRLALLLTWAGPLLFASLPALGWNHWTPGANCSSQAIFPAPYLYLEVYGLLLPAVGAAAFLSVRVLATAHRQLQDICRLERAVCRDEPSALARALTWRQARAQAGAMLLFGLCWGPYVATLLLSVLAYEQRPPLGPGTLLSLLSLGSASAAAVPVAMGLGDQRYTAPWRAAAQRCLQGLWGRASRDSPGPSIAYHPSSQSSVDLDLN
The assay can be described thus: TGR5/CRE Luciferase Assay (hTGR5). The class given is cell-based. Particulars: for EC50: HEK 293 cells co-transfected with pCMV tag4b-TGR5h and pCRE TA-Luciferase, overnight incubation; for hTGR5 % trans: percentage of the 10 μM LCA value, HEK 293 cells transfected with hTGR5. As for the experimental part:
as §1, §2

As to `CC1=C(C(=O)OCc2ccccc2OCCS(=O)(=O)O)[C@@H](c2ccc(Cl)nc2)CC(=O)N1C[C@@H]1CCCO1.N` (racemic) [Example 158, Ammonium, 2-[2-[[(4S)-4-(6-chloro-3-pyridyl)-6-methyl-2-oxo-1-[[(2R)-tetrahydrofuran-2-yl]methyl]-3,4-dihydropyridine-5-carbonyl]oxymethyl]phenoxy]ethanesulfonate and ammonium,2-[2-[[(4R)-4-(6-chloro-3-pyridyl)-6-methyl-2-oxo-1-[[(2S)-tetrahydrofuran-2-yl]methyl]-3,4-dihydropyridine-5-carbonyl]oxymethyl]phenoxy]ethanesulfonate], in assay [1], the EC50 turned out to be 1.3 µM and the mTGR5 % trans worked out at 97%. In assay [2], this compound returned an EC50 of 3.6 µM and a hTGR5 % trans of 74%.

In the case of `CC1=C(C(=O)OCc2ccccc2)C(c2ccc(C)cc2)CC(=O)N1` (stereo not shown) [Compound 3, 2-Methyl-6-oxo-4-p-tolyl-1,4,5,6-tetrahydro-pyridine-3-carboxylic acid benzyl ester], in assay [1], the EC50 was 10.4 µM and the mTGR5 % trans was 45%. In assay [2], this compound yielded an EC50 of 7.4 µM and a hTGR5 % trans of 65%.

`COc1ccccc1C1CC(=O)NC(C)=C1C(=O)OCc1ccccc1` (stereo not shown) [Compound 4, 4-(2-Methoxy-phenyl)-2-methyl-6-oxo-1,4,5,6-tetrahydro-pyridine-3-carboxylic acid benzyl ester]: in assay [1], the EC50 came to 8.5 µM and the mTGR5 % trans is given as 18%. In assay [2], this compound showed an EC50 of 10 µM and a hTGR5 % trans of 17%.

As to `COc1cccc(C2CC(=O)NC(C)=C2C(=O)OCc2ccccc2)c1` (stereo not shown) [Compound 5, 4-(3-Methoxy-phenyl)-2-methyl-6-oxo-1,4,5,6-tetrahydro-pyridine-3-carboxylic acid benzyl ester], in assay [1], the EC50 came to 11.1 µM and the mTGR5 % trans was 34%. Moreover, in assay [2], the concentration giving a half-maximal response (EC50) stood at 10.6 µM and the hTGR5 % trans came out at 31%.

In assay [1], `CC1=C(C(=O)OCc2ccccc2)C(c2ccccc2C(F)(F)F)CC(=O)N1` (stereo not shown) [Compound 7, 2-Methyl-6-oxo-4-(2-trifluoromethyl-phenyl)-1,4,5,6-tetrahydro-pyridine-3-carboxylic acid benzyl ester] had a mTGR5 % trans of 14%. In assay [2], this compound had an EC50 of 5 µM and a hTGR5 % trans of 22%.

On to `CC1=C(C(=O)OCc2ccccc2)C(c2ccc(C(F)(F)F)cc2)CC(=O)N1` (stereo not shown) [Compound 9, 2-Methyl-6-oxo-4-(4-trifluoromethyl-phenyl)-1,4,5,6-tetrahydro-pyridine-3-carboxylic acid benzyl ester], for which, in assay [1], the EC50 came to 1.4 µM and the mTGR5 % trans is given as 37%. Besides, in assay [2], the EC50 turned out to be 1.5 µM and the hTGR5 % trans came to 48%.

In assay [1], `CC1=C(C(=O)OCc2ccccc2)C(c2ccc(F)cc2)CC(=O)N1` (stereo not shown) [Compound 13, 4-(4-Fluoro-phenyl)-2-methyl-6-oxo-1,4,5,6-tetrahydro-pyridine-3-carboxylic acid benzyl ester] came in with an EC50 of 4.2 µM and a mTGR5 % trans of 37%. In assay [2], this compound gave an EC50 of 2.6 µM and a hTGR5 % trans of 40%.

Turning to `CC1=C(C(=O)OCc2ccccc2)C(c2ccccc2)CC(=O)N1` (stereo not shown) [Compound 14, 2-Methyl-6-oxo-4-phenyl-1,4,5,6-tetrahydro-pyridine-3-carboxylic acid benzyl ester], in assay [1], a half-maximal effect (EC50) was put at 10.3 µM and the mTGR5 % trans is reported as 18%. In assay [2], this compound returned an EC50 of 7.6 µM and a hTGR5 % trans of 30%.

In the case of `CC1=C(C(=O)OCc2ccccc2)C(c2ccc(Cl)cc2)CC(=O)N1C` (stereo not shown) [Compound 17, 4-(4-Chloro-phenyl)-1,2-dimethyl-6-oxo-1,4,5,6-tetrahydro-pyridine-3-carboxylic acid benzyl ester], the EC50 in assay [1] is 1.4 µM; in assay [2] it was 0.6 µM.

With `COCCC1=C(C(=O)OCc2ccccc2)C(c2ccc(Cl)cc2)CC(=O)N1` (stereo not shown) [Compound 22, benzyl 4-(4-chlorophenyl)-6-(2-methoxyethyl)-2-oxo-3,4-dihydro-1H-pyridine-5-carboxylate], in assay [1], the response was half-maximal at 4.3 µM (EC50) and the mTGR5 % trans was 44%. Besides, in assay [2], the EC50 stood at 3.51 µM and the hTGR5 % trans worked out at 36%.

On to `O=C1CC(c2ccc(Cl)cc2)C(C(=O)NCc2ccccc2)=CN1` (stereo not shown) [Compound 25, N-benzyl-4-(4-chlorophenyl)-2-oxo-3,4-dihydro-1H-pyridine-5-carboxamide], for which, in assay [1], the EC50 is 0.5 µM and the mTGR5 % trans was found to be 36%. In assay [2], the EC50 is 1.22 µM and the hTGR5 % trans worked out at 43%.

In assay [1], `CN1C=C(C(=O)NCc2ccccc2)C(c2ccc(Cl)cc2)CC1=O` (stereo not shown) [Compound 26, N-benzyl-4-(4-chlorophenyl)-1-methyl-2-oxo-3,4-dihydropyridine-5-carboxamide] came in with an EC50 of 1.8 µM and a mTGR5 % trans of 20%. In addition, in assay [2], the EC50 was 4.6 µM and the hTGR5 % trans amounted to 10%.

As to `O=C(OCc1ccccc1)C1=CN(CC2CC2)C(=O)CC1c1ccc(Cl)cc1` (stereo not shown) [Compound 29, Benzyl 4-(4-chlorophenyl)-1-(cyclopropylmethyl)-2-oxo-3,4-dihydropyridine-5-carboxylate], in assay [1], a half-maximal effect (EC50) was put at 1.5 µM and the mTGR5 % trans was determined as 37%. For the same compound, in assay [2], the midpoint of the response, the EC50, lay at 1.26 µM and the hTGR5 % trans amounted to 59%.

As for `O=C(NCc1ccccc1)C1=CN(CC2CC2)C(=O)CC1c1ccc(Cl)cc1` (stereo not shown) [Compound 30, N-benzyl-4-(4-chlorophenyl)-1-(cyclopropylmethyl)-2-oxo-3,4-dihydropyridine-5-carboxamide], in assay [1], the 50% effective concentration (EC50) is 3.9 µM and the mTGR5 % trans is on record as 12%. Besides, in assay [2], the EC50 stood at 1.5 µM and the hTGR5 % trans was found to be 16%.

In assay [1], `COCCN1C=C(C(=O)OCc2ccccc2)C(c2ccc(Cl)cc2)CC1=O` (stereo not shown) [Compound 32, Benzyl 4-(4-chlorophenyl)-1-(2-methoxyethyl)-2-oxo-3,4-dihydropyridine-5-carboxylate] gave an EC50 of 1.1 µM and a mTGR5 % trans of 55%. In addition, in assay [2], the response was half-maximal at 0.6 µM (EC50) and the hTGR5 % trans is given as 77%.

In assay [1], `COCCN1C=C(C(=O)NCc2ccccc2)C(c2ccc(Cl)cc2)CC1=O` (stereo not shown) [Compound 33, N-benzyl-4-(4-chlorophenyl)-1-(2-methoxyethyl)-2-oxo-3,4-dihydropyridine-5-carboxamide] gave an EC50 of 11 µM and a mTGR5 % trans of 14%. In assay [2], this compound returned an EC50 of 6.4 µM and a hTGR5 % trans of 42%.

In assay [1], `CN1C=C(C(=O)N(C)Cc2ccccc2)C(c2ccc(Cl)cc2)CC1=O` (stereo not shown) [Compound 33a, N-benzyl-4-(4-chlorophenyl)-N,1-dimethyl-2-oxo-3,4-dihydropyridine-5-carboxamide] showed an EC50 of 1.1 µM and a mTGR5 % trans of 16%. Also, in assay [2], the EC50 came out at 39 µM and the hTGR5 % trans turned out to be 37%.

As to `COCCN1C(=O)CC(c2ccc(Cl)cc2)C(C(=O)OCc2ccccc2)=C1C` (stereo not shown) [Compound 37, Benzyl 4-(4-chlorophenyl)-1-(2-methoxyethyl)-6-methyl-2-oxo-3,4-dihydropyridine-5-carboxylate], the EC50 in assay [1] worked out at 0.6 µM; in assay [2], 0.3 µM.
